Test [1] deals with Serine protease 1 (Homo sapiens, UniProt P07477). The test can be described thus: Inhibition of trypsin.
Test [2] has as its target T1, Prothrombin (Homo sapiens, UniProt P00734). Kind of test: Inhibition against human thrombin.
For test [3], the target named is T2, Coagulation factor VII (Homo sapiens, UniProt P08709).
T2 sequence (P08709 whole entry): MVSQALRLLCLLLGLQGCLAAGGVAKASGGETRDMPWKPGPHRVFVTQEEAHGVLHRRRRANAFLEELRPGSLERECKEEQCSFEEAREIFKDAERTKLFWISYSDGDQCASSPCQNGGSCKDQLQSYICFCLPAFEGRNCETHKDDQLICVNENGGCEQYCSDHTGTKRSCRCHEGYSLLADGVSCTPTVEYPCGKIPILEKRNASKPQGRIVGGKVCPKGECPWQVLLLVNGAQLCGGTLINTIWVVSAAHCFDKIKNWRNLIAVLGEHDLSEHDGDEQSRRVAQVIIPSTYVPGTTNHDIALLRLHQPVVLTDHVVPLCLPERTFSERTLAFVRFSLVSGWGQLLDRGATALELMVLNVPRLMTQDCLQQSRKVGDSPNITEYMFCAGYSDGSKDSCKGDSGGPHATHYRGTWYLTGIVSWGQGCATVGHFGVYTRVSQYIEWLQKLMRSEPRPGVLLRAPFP
The test can be described thus: Inhibition against human Coagulation factor VII.

The target of test [4] is Coagulation factor X (Homo sapiens, UniProt P00742). Kind of test: Inhibition against human coagulation factor Xa.
Test [5] is described as follows: Compound was tested for inhibition against tissue factor.
The nature of test [6]: (§1) Concentration necessary to double the time required for clot formation induced by the addition of 4 NIH u/mL (final concentration) bovine thrombin. The class given is functional.
Test [7] deals with T1, Prothrombin. Kind of test: Concentration necessary to double the time required for clot formation induced by the addition of 4 NIH u/mL(final concentration) bovine thrombin. Format: functional.
Test [8] in a line: Compound was tested for inhibition against Coagulation factor I.
Test [9] deals with T1, Prothrombin. The description is as §1. Format: functional.

Chain of Serine protease 1 (P07477 whole entry): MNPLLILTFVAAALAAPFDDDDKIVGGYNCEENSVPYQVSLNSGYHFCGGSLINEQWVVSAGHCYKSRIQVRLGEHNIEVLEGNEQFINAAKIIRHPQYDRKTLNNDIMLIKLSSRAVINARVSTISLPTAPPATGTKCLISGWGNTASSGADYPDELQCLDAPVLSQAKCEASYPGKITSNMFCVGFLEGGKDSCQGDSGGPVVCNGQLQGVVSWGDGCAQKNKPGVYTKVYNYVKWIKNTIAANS
Chain of Coagulation factor X (P00742 41-179 limits assumed): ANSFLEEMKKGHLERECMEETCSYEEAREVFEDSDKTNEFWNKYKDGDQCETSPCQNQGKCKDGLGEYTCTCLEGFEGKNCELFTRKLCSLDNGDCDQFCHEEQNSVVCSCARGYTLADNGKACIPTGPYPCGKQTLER
Chain of Coagulation factor X (P00742 235-488 limits assumed): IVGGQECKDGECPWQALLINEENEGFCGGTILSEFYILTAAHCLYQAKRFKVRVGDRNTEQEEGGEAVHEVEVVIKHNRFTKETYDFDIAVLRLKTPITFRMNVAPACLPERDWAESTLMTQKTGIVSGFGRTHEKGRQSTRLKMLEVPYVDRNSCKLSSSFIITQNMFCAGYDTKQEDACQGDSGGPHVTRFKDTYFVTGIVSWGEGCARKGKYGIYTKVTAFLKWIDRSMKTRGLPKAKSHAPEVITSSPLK

With `CC1(C)[C@@H]2C[C@H]3OB([C@H](CCCCN)NC(=O)Cn4nc(CNS(=O)(=O)C(F)(F)F)nc4Cc4ccccc4)O[C@@]3(C)[C@H]1C2`, the Ki in test [1] was more than 1200 nM; in test [2] it was 210 nM; in test [3], more than 3 µM; in test [4], more than 6 µM; in test [5], 3700 nM.
For `CC1(C)[C@@H]2C[C@H]3OB([C@H](CCCCN)NC(=O)Cn4nc(CO)nc4Cc4ccccc4)O[C@@]3(C)[C@H]1C2`, the Ki in test [2] was 84 nM; in test [3], 7.7 µM; in [4] it was more than 6 µM.
On to `CC1(C)[C@@H]2C[C@H]3OB([C@H](CCCCN)NC(=O)Cn4ncnc4Cc4ccccc4)O[C@@]3(C)[C@H]1C2`, for which the values for the Ki in [6] and in test [2] were 2500 nM and 31 nM, respectively.
In test [2], `CC1(C)[C@@H]2C[C@H]3OB([C@H](CCCCN)NC(=O)Cn4nc(-c5ccccc5)nc4Cc4ccccc4)O[C@@]3(C)[C@H]1C2` had a Ki of 173 nM.
As for `CC1(C)[C@@H]2C[C@H]3OB([C@H](CCCCN)NC(=O)Cn4nc(COCc5ccccc5)nc4Cc4ccccc4)O[C@@]3(C)[C@H]1C2`, the Ki was found to be 1.3 µM in test [7], 8.7 nM in test [2], 1.5 µM in test [3] and 1.6 µM in test [4].
In the case of `CC(C)(C)OC(=O)/C=C/c1nc(Cc2ccccc2)n(CC(=O)N[C@@H](CCCCN)B2O[C@@H]3C[C@@H]4C[C@@H](C4(C)C)[C@]3(C)O2)n1`, the Ki in [1] is 36 nM; in test [2], 150 nM; in [3] it was 2.7 µM; in test [4], more than 6 µM; in test [5] it was 2800 nM.
For `CC(C)C(=O)NCc1nc(Cc2ccccc2)n(CC(=O)N[C@@H](CCCCN)B2O[C@@H]3C[C@@H]4C[C@@H](C4(C)C)[C@]3(C)O2)n1`, the Ki in test [1] was 9.6 nM; in test [2] it was 160 nM; in test [3], more than 3 µM; in test [4] it was more than 6 µM.
Consider `CC1(C)[C@@H]2C[C@H]3OB([C@H](CCCCN)NC(=O)Cn4nc(-c5cccc([N+](=O)[O-])c5)nc4Cc4ccccc4)O[C@@]3(C)[C@H]1C2`, for which the Ki in test [2] was determined as 85 nM; in test [3] it was 2.6 µM; in test [4] it was 4.2 µM.
As to `CC1(C)[C@@H]2C[C@H]3OB([C@H](CCCCN)NC(=O)Cn4nc(-c5cccc(N)c5)nc4Cc4ccccc4)O[C@@]3(C)[C@H]1C2`, the inhibition constant Ki in test [1] was 4.2 nM; in [2], 150 nM; in test [3] it was 1.4 µM; in [4], more than 6 µM.
Turning to `Cc1nc(Cc2ccccc2)n(CC(=O)N[C@@H](CCCCN)B2O[C@@H]3C[C@@H]4C[C@@H](C4(C)C)[C@]3(C)O2)n1`, the Ki in test [7] is 6 µM; in [2], 8.6 nM; in [3], 7.16 µM; in [4], more than 6 µM.
`CSCc1nc(Cc2ccccc2)n(CC(=O)N[C@@H](CCCCN)B2O[C@@H]3C[C@@H]4C[C@@H](C4(C)C)[C@]3(C)O2)n1`: the Ki in [1] was 1.9 nM; in [7], 4.5 µM; in test [2], 65 nM; in test [3] it was 2.5 µM; in [4], more than 6 µM.
For `CC1(C)[C@@H]2C[C@H]3OB([C@H](CCCCN)NC(=O)Cn4nc(CC#N)cc4CCc4ccccc4)O[C@@]3(C)[C@H]1C2`, the Ki was 35 nM in test [1], 13 µM in test [8], 4.6 nM in test [2] and more than 6 µM in [4].
In the case of `CC1(C)[C@@H]2C[C@H]3OB([C@H](CCCCN)NC(=O)Cn4nc(Cc5nn[nH]n5)nc4Cc4ccccc4)O[C@@]3(C)[C@H]1C2`, affinity in test [2] was put at a Ki of 350 nM.
Consider `CC(C)(C)OC(=O)CCc1nc(Cc2ccccc2)n(CC(=O)N[C@@H](CCCCN)B2O[C@@H]3C[C@@H]4C[C@@H](C4(C)C)[C@]3(C)O2)n1`, for which the inhibition constant (Ki) in test [1] was 1.4 nM; in [2] it was 5.5 nM; in [3] it was more than 3 µM; in [4], 0.76 µM; in test [5], 670 nM.
The matching figures for `CC1(C)[C@@H]2C[C@H]3OB([C@H](CCCCN)NC(=O)Cn4nc(CS(C)(=O)=O)nc4Cc4ccccc4)O[C@@]3(C)[C@H]1C2`: 2.1 nM, 11 nM, 1.9 µM, more than 6 µM and 2700 nM.
`CC1(C)[C@@H]2C[C@H]3OB([C@H](CCCCN)NC(=O)Cn4nnnc4CCc4ccccc4)O[C@@]3(C)[C@H]1C2` gave a Ki in test [2] of 33 nM. This counts as double-digit nanomolar.
On to `CC1(C)[C@@H]2C[C@H]3OB([C@H](CCCCN)NC(=O)Cn4nc(CCC(=O)O)nc4Cc4ccccc4)O[C@@]3(C)[C@H]1C2`, for which the Ki in test [1] was 7.1 nM; in test [2] it was 230 nM; in test [3] it was more than 3 µM; in [4], more than 6 µM; in [5] it was more than 10000 nM.
With `CC1(C)[C@@H]2C[C@H]3OB([C@H](CCCCN)NC(=O)Cn4nc(Cc5ccccc5)nc4Cc4ccccc4)O[C@@]3(C)[C@H]1C2`, the Ki in test [2] is 41 nM; in [3] it was 3.94 µM; in [4] it was more than 6 µM.
With `CCCc1nc(Cc2ccccc2)n(CC(=O)N[C@@H](CCCCN)B2O[C@@H]3C[C@@H]4C[C@@H](C4(C)C)[C@]3(C)O2)n1`, the Ki in test [1] was 2.3 nM; in [2], 73 nM; in test [3], 2.4 µM; in [4], more than 6 µM.
`CC1(C)[C@@H]2C[C@H]3OB([C@H](CCCCN)NC(=O)Cn4nc(CC#N)nc4Cc4cccc([N+](=O)[O-])c4)O[C@@]3(C)[C@H]1C2`: the Ki was 23 nM in test [1]; 1.9 µM in test [8]; 1.8 nM in [2]; more than 3 µM in test [3]; more than 6 µM in test [4].
For the compound `CC1(C)[C@@H]2C[C@H]3OB([C@H](CCCCN)NC(=O)Cn4nc(CC(=O)O)nc4Cc4ccccc4)O[C@@]3(C)[C@H]1C2`, the values for the Ki in [2], in [3] and in [4] were 1700 nM, more than 14 µM and more than 6 µM, respectively.
Consider `CC1(C)[C@@H]2C[C@H]3OB([C@H](CCCCN)NC(=O)Cn4nc(CC#N)nc4Cc4ccccc4[N+](=O)[O-])O[C@@]3(C)[C@H]1C2`, for which the Ki in test [1] is 8.4 nM; in test [8] it was 2 µM; in test [2] it was 0.8 nM; in test [3] it was 3 µM; in test [4], 4.9 µM.
The matching figures for `CC1(C)[C@@H]2C[C@H]3OB([C@H](CCCCN)NC(=O)Cn4nc(CC#N)nc4CCc4ccccc4)O[C@@]3(C)[C@H]1C2`: 12 nM, 6.8 µM, 2.6 nM, more than 3 µM and more than 6 µM.
With `CC(C)(C)CC(=O)NCc1nc(Cc2ccccc2)n(CC(=O)N[C@@H](CCCCN)B2O[C@@H]3C[C@@H]4C[C@@H](C4(C)C)[C@]3(C)O2)n1`, the Ki in test [1] is 2.7 nM; in [2] it was 33 nM; in test [3], more than 3 µM; in test [4] it was 4.3 µM; in [5] it was 1490 nM.
As for `C[S+]([O-])Cc1nc(Cc2ccccc2)n(CC(=O)N[C@@H](CCCCN)B2O[C@@H]3C[C@@H]4C[C@@H](C4(C)C)[C@]3(C)O2)n1` (some centres not stated), the Ki was determined as 4.8 nM in [1]; 47 nM in test [2]; 2.1 µM in test [3]; 6 µM in [4]; 3600 nM in [5].
As to `CC1(C)[C@@H]2C[C@H]3OB([C@H](CCCCN)NC(=O)Cn4ncnc4CCCc4ccccc4)O[C@@]3(C)[C@H]1C2`, the Ki in [2] was more than 42 nM.
In the case of `COC(=O)Cc1nc(Cc2ccccc2)n(CC(=O)N[C@@H](CCCCN)B2O[C@@H]3C[C@@H]4C[C@@H](C4(C)C)[C@]3(C)O2)n1`, the Ki is 85 nM in [2], 14 µM in test [3] and more than 6 µM in test [4].
`CC1(C)[C@@H]2C[C@H]3OB([C@H](CCCCN)NC(=O)Cn4ncnc4CCc4ccccc4)O[C@@]3(C)[C@H]1C2` yielded a Ki in test [2] of 36 nM.
For `CC1(C)[C@@H]2C[C@H]3OB([C@H](CCCCN)NC(=O)Cn4nc(CNC=O)nc4Cc4ccccc4)O[C@@]3(C)[C@H]1C2`, the Ki in test [1] was 6.6 nM; in [2] it was 33 nM; in test [3] it was 2.2 µM; in [4], more than 6 µM; in test [5], 2700 nM.
For the compound `CC1(C)[C@@H]2C[C@H]3OB([C@H](CCCCN)NC(=O)Cn4nc(CC#N)nc4Cc4ccccc4)O[C@@]3(C)[C@H]1C2`, the Ki in test [9] was 500 nM; in test [1], 5.6 nM; in test [2] it was 3.5 nM; in test [3] it was 4.2 µM; in test [4], more than 6 µM.
Consider `CN(CC(=O)N[C@@H](CCCSC(=N)N)B(O)O)C(=O)CCc1ccccc1`, for which, in test [2], the Ki is 0.3 nM.

For the origin of these results see ChEMBL document CHEMBL1130774, “Pyrazoles, 1,2,4-triazoles, and tetrazoles as surrogates for cis-amide bonds in boronate ester thrombin inhibitors” (Bioorg Med Chem Lett, 1998).
